ChEMBL document CHEMBL5532641, “MNK, mTOR or eIF4E-selecting the best anti-tumor target for blocking translation initiation” (Eur J Med Chem, 2023)
pIC50: −log10 of the molar value. Blank lines part the entries; values can stand above or below the compound they belong to.

How the values were obtained:
[1] = target: EIF4E/EIF4G1 (Homo sapiens, UniProt P06730+Q04637); assay type: protein-complex assay
[2] = system: MDA-MB-231; experiment: animal or person; assay type: functional, Homo sapiens; conditions: Mus musculus, MDA-MB-231, 696 h, route ip, time 29 day, read-out: TGI
[3] = animal or person; assay type: functional; conditions: Homo sapiens, BR100 cell, 408 h, route ip, time 17 day, read-out: TGI
[4] = system: CWR22R; experiment: animal or person; assay type: functional, Homo sapiens; conditions: Mus musculus, 22Rv1, 816 h, route ip, time 34 day, read-out: TGI
[5] = system: MDA-MB-231; experiment: animal or person; assay type: functional, Homo sapiens; conditions: Mus musculus, MDA-MB-231, 696 h, route ip, time 29 day, read-out: TGI; remark: listed apart in the source
[6] = system: MDA-MB-231; experiment: animal or person; assay type: functional, Homo sapiens; conditions: Mus musculus, MDA-MB-231, 696 h, route ip, time 29 day, read-out: TGI; remark: listed apart in the source
[7] = system: CWR22R; experiment: animal or person; assay type: functional, Homo sapiens; conditions: Mus musculus, 22Rv1, 816 h, route ip, time 34 day, read-out: TGI; remark: listed apart in the source
[8] = target: MAP kinase-interacting serine/threonine-protein kinase 2 (Homo sapiens, UniProt Q9HBH9)
Sequence of MAP kinase-interacting serine/threonine-protein kinase 2 (Q9HBH9 whole entry): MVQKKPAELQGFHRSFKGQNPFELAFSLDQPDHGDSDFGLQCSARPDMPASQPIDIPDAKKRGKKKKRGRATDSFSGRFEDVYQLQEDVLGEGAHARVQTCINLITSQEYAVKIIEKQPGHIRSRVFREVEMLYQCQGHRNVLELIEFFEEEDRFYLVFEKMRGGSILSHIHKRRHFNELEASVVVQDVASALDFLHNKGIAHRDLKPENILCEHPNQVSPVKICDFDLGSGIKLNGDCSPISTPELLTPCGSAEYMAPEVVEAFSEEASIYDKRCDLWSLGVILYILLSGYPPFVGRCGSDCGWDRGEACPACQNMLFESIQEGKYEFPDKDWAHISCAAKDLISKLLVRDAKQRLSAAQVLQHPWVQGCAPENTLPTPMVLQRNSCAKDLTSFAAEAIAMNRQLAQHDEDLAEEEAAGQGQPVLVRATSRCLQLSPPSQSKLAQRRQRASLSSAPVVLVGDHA

[9] = in vivo; conditions: mouse, po
[10] = system: Lymphoma cell line; experiment: cells; assay type: functional, cell-based; conditions: Homo sapiens, 72 h
[11] = system: Leukemia cell; experiment: cells; assay type: functional, cell-based; conditions: Homo sapiens, 72 h
[12] = target: Eukaryotic initiation factor 4A-I (Homo sapiens, UniProt P60842)
Sequence of Eukaryotic initiation factor 4A-I (P60842 whole entry): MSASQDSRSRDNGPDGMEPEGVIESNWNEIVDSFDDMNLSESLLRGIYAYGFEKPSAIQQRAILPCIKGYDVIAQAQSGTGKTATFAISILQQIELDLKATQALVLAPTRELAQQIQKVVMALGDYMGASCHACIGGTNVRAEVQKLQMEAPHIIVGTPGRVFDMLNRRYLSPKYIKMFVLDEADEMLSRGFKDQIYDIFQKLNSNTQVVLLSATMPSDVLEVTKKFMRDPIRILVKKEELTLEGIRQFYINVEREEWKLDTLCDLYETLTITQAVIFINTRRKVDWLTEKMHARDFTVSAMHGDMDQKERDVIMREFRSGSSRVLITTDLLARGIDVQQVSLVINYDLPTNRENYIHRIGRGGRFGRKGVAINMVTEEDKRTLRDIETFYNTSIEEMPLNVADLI

[13] = system: A549; experiment: cells; assay type: functional, cell-based; conditions: Homo sapiens, A549, 70 min
[14] = target: mTORC1 (Homo sapiens) (UniProt P42345+Q8N122+Q9BVC4); conditions: dose 500.0 nM
Sequence of mTORC1 (Homo sapiens) (Q8N122 whole entry, looked up, other chains not shown, canonical isoform): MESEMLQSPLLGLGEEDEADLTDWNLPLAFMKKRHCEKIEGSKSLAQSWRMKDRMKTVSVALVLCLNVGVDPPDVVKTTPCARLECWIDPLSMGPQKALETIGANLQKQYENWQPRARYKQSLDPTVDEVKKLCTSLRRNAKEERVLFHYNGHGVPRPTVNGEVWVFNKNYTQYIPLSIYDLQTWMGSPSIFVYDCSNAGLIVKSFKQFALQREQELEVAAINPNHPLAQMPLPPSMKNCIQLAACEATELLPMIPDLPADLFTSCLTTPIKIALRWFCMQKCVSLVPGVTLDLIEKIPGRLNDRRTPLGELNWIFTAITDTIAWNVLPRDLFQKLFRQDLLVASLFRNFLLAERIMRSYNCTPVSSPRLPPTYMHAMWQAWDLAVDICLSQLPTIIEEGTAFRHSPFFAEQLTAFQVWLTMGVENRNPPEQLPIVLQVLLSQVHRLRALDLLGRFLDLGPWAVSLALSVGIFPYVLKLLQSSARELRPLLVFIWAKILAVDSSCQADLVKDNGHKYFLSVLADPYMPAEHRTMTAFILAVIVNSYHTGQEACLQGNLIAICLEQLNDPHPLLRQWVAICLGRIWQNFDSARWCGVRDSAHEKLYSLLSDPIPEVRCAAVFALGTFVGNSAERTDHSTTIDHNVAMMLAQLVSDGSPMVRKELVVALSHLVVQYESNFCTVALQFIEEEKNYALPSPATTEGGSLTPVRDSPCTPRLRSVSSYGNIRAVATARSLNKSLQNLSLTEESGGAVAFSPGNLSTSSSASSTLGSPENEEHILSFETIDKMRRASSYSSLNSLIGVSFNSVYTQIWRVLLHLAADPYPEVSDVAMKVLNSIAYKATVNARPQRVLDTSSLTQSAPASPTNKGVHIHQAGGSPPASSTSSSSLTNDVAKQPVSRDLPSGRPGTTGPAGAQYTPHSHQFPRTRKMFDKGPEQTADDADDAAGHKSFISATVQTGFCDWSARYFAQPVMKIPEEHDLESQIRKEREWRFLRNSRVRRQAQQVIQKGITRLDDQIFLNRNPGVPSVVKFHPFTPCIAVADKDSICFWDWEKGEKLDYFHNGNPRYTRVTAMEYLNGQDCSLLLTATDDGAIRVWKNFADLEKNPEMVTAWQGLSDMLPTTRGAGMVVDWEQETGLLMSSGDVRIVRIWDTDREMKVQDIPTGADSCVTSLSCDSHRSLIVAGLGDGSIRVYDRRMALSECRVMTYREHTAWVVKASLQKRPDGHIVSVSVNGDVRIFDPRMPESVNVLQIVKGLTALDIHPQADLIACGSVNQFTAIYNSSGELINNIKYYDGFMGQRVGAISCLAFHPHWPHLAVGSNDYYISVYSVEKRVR
Sequence of mTORC1 (Homo sapiens) (Q9BVC4 whole entry, looked up, other chains not shown, canonical isoform): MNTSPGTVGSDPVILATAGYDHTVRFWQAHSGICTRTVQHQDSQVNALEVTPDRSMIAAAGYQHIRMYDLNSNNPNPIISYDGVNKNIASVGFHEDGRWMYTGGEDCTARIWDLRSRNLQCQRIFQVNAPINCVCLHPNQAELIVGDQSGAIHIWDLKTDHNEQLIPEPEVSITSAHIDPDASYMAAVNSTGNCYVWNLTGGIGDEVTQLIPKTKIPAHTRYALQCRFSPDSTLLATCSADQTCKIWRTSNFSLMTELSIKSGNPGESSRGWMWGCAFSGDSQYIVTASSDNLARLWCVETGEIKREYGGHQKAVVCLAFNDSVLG

[15] = target: Phosphatidylinositol 4,5-bisphosphate 3-kinase catalytic subunit gamma isoform (Homo sapiens, UniProt P48736)

Sequence of EIF4E/EIF4G1 (P06730 whole entry): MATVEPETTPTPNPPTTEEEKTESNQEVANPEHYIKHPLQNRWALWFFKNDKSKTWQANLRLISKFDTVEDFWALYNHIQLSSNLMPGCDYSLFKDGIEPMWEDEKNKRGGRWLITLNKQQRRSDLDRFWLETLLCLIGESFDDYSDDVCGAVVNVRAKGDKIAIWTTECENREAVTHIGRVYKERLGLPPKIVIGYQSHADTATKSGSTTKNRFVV
Sequence of EIF4E/EIF4G1 (Q04637 whole entry): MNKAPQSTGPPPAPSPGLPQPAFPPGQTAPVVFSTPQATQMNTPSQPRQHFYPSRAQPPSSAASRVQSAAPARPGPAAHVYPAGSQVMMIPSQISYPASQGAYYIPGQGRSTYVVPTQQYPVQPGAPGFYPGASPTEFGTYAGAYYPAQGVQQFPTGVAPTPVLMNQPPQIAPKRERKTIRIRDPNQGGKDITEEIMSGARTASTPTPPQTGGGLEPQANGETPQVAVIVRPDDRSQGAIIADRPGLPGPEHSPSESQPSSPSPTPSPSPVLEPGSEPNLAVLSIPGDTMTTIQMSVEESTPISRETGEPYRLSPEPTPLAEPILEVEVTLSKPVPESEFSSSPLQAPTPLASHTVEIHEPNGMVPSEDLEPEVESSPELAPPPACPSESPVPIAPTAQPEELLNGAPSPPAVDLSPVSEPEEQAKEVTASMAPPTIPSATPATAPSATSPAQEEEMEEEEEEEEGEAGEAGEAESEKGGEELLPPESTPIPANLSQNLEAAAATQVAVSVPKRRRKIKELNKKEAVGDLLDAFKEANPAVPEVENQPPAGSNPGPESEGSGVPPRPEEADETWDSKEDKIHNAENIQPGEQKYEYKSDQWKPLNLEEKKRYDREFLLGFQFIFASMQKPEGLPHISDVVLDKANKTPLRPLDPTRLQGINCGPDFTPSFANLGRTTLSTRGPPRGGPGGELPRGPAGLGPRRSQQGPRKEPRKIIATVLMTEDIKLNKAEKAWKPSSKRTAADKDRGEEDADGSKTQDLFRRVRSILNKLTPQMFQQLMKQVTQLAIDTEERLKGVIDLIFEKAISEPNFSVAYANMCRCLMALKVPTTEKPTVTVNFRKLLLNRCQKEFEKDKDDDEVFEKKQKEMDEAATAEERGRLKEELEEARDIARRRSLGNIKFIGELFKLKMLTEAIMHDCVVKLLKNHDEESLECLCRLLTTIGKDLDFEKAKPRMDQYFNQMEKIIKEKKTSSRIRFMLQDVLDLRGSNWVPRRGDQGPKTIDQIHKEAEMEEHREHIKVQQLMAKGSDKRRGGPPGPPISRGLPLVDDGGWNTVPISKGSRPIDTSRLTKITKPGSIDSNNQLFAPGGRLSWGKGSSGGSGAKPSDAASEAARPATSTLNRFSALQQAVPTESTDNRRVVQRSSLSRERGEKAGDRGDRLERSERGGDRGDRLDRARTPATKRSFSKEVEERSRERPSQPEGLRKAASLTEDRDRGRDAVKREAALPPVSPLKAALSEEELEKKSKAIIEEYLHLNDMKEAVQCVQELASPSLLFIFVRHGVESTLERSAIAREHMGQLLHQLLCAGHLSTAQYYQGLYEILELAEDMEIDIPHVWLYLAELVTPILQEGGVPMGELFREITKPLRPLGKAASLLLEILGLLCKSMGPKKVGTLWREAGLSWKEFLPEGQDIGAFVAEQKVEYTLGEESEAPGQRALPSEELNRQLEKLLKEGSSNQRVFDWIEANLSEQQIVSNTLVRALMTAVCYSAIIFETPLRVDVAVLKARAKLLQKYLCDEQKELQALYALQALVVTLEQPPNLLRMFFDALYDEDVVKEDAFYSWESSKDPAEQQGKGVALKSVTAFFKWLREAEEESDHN

pIC50 [1]: 4.87
Structure (SMILES): O=C(O)c1cc(-c2ccc(/C=C3\SC(=S)N(Cc4ccccc4)C3=O)o2)ccc1Cl

pIC50 [8]: 6.04
Structure (SMILES): C[C@H](CN)Oc1ccc2ncc(-c3cc4ccccc4o3)n2n1

pIC50 [13]: 5.22
Structure (SMILES): O=C(O)/C(Cc1ccccc1[N+](=O)[O-])=N/Nc1nc(-c2ccc(Cl)c(Cl)c2)cs1

inhibition [14]: 83.9%
Structure (SMILES): Oc1cccc(-c2nc(N3CCOCC3)c3oc4ncccc4c3n2)c1

The remaining lines, values behind:

Structure (SMILES): CC1=C(/C=C/C(C)=C/C=C/C(C)=C/C(=O)Nc2ccc(F)cc2)C(C)(C)CCC1n1ccnc1 (stereo not given)
inhibition in vivo at 5 mg/kg [2]: 91% | inhibition in vivo at 10 mg/kg [3]: 73.3% | inhibition in vivo at 20 mg/kg [4]: 76.3% | inhibition in vivo at 10 mg/kg [5]: 97% | inhibition in vivo at 20 mg/kg [6]: 97% | inhibition in vivo at 10 mg/kg [7]: 63.4%

Structure (SMILES): COC(=O)[C@H]1[C@@H](O)[C@@]2(O)c3c(OC)cc(O[C@@H]4O[C@@H]([C@H](O)CO)CO[C@H]4OC)cc3O[C@@]2(c2ccc(OC)cc2)[C@@H]1c1ccccc1 [SILVESTROL]
bioavailability [9]: 1%

Structure (SMILES): C=C1C[C@@H](O)[C@@H](Br)C(C)(C)[C@]12CCC(C)=C(Cl)C2
pIC50 [10]: 5.80 | pIC50 [11]: 5.77 | pIC50 [12]: 4.79

Structure (SMILES): COc1ncc(-c2ccc3nccc(-c4ccnnc4)c3c2)cc1NS(=O)(=O)c1ccc(F)cc1F [OMIPALISIB]
pIC50 [15]: 10.62
